IC50 data for 31 compounds are collected here from patent US11040981B2, “Pyrrolotriazine compounds and methods of inhibiting TAM kinases” (Syros Pharmaceuticals, Inc., priority 2017, dated 2021).

For one assay, the target named is T1, TYRO3 (Homo sapiens, UniProt Q06418).
T1 sequence (Q06418 41-890): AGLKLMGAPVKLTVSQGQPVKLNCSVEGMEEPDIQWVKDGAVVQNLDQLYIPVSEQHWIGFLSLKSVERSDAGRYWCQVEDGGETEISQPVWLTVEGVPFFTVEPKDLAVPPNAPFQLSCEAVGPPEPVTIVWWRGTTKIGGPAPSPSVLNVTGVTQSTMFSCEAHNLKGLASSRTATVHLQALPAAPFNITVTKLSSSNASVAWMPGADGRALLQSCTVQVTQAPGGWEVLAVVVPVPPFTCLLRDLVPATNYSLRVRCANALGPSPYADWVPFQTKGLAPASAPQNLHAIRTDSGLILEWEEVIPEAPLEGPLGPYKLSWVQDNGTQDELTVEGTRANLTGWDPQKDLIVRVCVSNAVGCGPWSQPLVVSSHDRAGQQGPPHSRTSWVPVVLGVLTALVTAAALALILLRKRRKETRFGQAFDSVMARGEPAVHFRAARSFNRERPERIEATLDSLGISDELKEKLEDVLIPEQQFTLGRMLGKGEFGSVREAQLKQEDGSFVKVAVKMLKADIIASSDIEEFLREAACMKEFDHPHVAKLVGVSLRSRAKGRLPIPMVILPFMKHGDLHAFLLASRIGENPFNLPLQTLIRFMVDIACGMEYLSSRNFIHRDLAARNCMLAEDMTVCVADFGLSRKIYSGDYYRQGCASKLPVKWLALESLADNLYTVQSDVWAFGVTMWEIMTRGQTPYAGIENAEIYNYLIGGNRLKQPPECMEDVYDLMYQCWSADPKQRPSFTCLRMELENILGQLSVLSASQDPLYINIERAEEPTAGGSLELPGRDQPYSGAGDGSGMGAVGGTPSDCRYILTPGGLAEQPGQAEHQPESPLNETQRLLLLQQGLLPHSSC
The assay can be described thus: TR-FRET kinase activity assay, TYRO3. In kind it is biochemical. As to conditions: ATP at Km, 60 minutes. Put shortly: (§1)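 Recombinant human kinases, fluorescent peptide substrate, ATP at Km; 1 h RT, pH 7.5. EDTA-quenched, Eu antibody added, TR-FRET read; IC50 determined.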
A general note: Time-resolved FRET reads energy transfer from a long-lived donor to a nearby acceptor.

The target of another assay is T2, FLT3 (Homo sapiens, UniProt P36888).
T2 sequence (P36888 27-993): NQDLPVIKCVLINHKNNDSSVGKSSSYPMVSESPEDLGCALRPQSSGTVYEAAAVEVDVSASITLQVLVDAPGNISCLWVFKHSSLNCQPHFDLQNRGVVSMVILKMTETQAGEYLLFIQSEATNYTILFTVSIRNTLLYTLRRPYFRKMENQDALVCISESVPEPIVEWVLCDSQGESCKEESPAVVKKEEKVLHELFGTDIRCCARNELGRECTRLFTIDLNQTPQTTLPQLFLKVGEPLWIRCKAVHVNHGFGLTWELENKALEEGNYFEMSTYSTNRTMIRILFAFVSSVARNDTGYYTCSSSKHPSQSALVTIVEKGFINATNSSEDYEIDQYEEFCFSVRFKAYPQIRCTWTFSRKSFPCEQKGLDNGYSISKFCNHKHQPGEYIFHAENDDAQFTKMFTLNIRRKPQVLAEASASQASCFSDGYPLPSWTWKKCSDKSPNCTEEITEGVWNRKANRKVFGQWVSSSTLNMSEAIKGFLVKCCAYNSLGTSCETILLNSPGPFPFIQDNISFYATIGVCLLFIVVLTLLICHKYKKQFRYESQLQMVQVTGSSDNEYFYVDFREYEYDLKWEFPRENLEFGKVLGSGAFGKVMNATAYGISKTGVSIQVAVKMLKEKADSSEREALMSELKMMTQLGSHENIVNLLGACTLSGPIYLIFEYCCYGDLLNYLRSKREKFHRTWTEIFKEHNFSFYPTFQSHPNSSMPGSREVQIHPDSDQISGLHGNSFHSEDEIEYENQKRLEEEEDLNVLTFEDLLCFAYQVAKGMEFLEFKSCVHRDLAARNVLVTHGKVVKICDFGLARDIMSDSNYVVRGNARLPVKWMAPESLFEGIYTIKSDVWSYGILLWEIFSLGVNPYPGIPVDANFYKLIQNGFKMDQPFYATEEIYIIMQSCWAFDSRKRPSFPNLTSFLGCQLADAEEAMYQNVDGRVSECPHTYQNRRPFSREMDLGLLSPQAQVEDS
The assay can be described thus: TR-FRET kinase activity assay, FLT3. Type of assay: biochemical. As to conditions: ATP at Km, 60 minutes. Put shortly: as §1

By IC50 is commonly meant the concentration needed to halve the response being measured. Higher therefore signals lower potency.

As to `Cc1cc(-c2cc([C@H]3CC[C@H](O)CC3)n3nc(N[C@@H](C)C(F)F)ncc23)ccn1` [Compound 309], the results for the IC50 against TYRO3 and against FLT3 were at most 100 nM and 100 to 1000 nM, respectively.

In the case of `COCCOc1cc(-c2cc([C@H]3CC[C@H](O)CC3)n3nc(N[C@@H](C)COC)ncc23)ccn1` [Compound 345], the IC50 on TYRO3 is at most 100 nM; against FLT3, 1000 to 10000 nM.

For `COC[C@H](C)Nc1ncc2c(-c3ccc(S(C)(=O)=O)nc3)cc([C@H]3CC[C@H](O)CC3)n2n1` [Compound 279], the values for the IC50 against TYRO3 and against FLT3 were at most 100 nM and 100 to 1000 nM, respectively.

For `COC[C@H](C)Nc1ncc2c(-c3ccc(CN4CCOCC4)cc3)cc([C@H]3CC[C@H](NC(C)=O)CC3)n2n1` [Compound 300, N-((trans)-4-(2-(((S)-1-methoxypropan-2-yl)amino)-5-(4-(morpholinomethyl)phenyl)pyrrolo[2,1-f][1,2,4]triazin-7-yl)cyclohexyl)acetamide], the IC50 at TYRO3 is at most 100 nM; on FLT3 it was 100 to 1000 nM.

As for `CNS(=O)(=O)c1cncc(-c2cc([C@H]3CC[C@H](O)CC3)n3nc(N[C@@H](C)COC(F)F)ncc23)c1` [Compound 275], the half-inhibitory concentration (IC50) against TYRO3 is at most 100 nM; against FLT3, 1000 to 10000 nM.

As to `C[C@@H](CC(F)(F)F)Nc1ncc2c(-c3cncc(C(=O)O)c3)cc([C@H]3CC[C@H](O)CC3)n2n1` [Compound 298], the values for the 50% inhibitory concentration (IC50) at TYRO3 and on FLT3 were at most 100 nM and 1000 to 10000 nM, respectively.

As for `COC[C@H](C)Nc1ncc2c(-c3cnn(Cc4cc(C)nn4C)c3)cc([C@H]3CC[C@H](O)CC3)n2n1` [Compound 333], the IC50 against TYRO3 is at most 100 nM; against FLT3, 100 to 1000 nM.

`COC[C@H](C)Nc1ncc2c(-c3ccnc(NC(C)C)c3)cc([C@H]3CC[C@H](O)CC3)n2n1` [Compound 337]: the IC50 at TYRO3 is at most 100 nM; against FLT3 it was 100 to 1000 nM.

For `COC[C@H](C)Nc1ncc2c(-c3ccnc(OC4CCN(C)CC4)c3)cc([C@H]3CC[C@H](O)CC3)n2n1` [Compound 342], the half-maximal inhibitory concentration (IC50) against TYRO3 was at most 100 nM; against FLT3, 100 to 1000 nM.

Regarding `C[C@@H](CC(F)(F)F)Nc1ncc2c(-c3cnn([C@@H]4CCOC4)c3)cc([C@H]3CC[C@H](O)CC3)n2n1` [Compound 289], the IC50 at TYRO3 and at FLT3 was at most 100 nM each time.

On to `COC[C@H](C)Nc1ncc2c(-c3cnn(Cc4nnc(C)o4)c3)cc([C@H]3CC[C@H](O)CC3)n2n1` [Compound 277], for which the 50% inhibitory concentration (IC50) at TYRO3 and against FLT3 was at most 100 nM each time.

In the case of `C[C@@H](CC(F)(F)F)Nc1ncc2c(-c3cnn([C@H]4CCOC4)c3)cc([C@H]3CC[C@H](O)CC3)n2n1` [Compound 290], the IC50 on TYRO3 and on FLT3 was at most 100 nM in each case.

In the case of `COC[C@H](C)Nc1ncc2c(-c3ccnc(C)c3)cc(C3CCC4(CC3)NC(=O)NC4=O)n2n1` (mixture of isomers) [Compound 325, (S)-8-(2-((1-methoxypropan-2-yl)amino)-5-(2-methylpyridin-4-yl)pyrrolo[2,1-f][1,2,4]triazin-7-yl)-1,3-diazaspiro[4.5]decane-2,4-dione], the IC50 against TYRO3 is at most 100 nM; at FLT3, 1000 to 10000 nM.

Turning to `CCCCC[C@H](C)Nc1ncc2c(C3=CC[C@@H](C(=O)N4CCOCC4)CC3)cc([C@H]3CC[C@H](O)CC3)n2n1` [Compound 113], the results for the IC50 against TYRO3 and on FLT3 were at most 100 nM and 100 to 1000 nM, respectively.

On to `COC[C@H](C)Nc1ncc2c(-c3cnn(C(C)(C)C(=O)N4CC5(COC5)C4)c3)cc([C@H]3CC[C@H](O)CC3)n2n1` [Compound 326], for which the IC50 was at most 100 nM against TYRO3 and 1000 to 10000 nM on FLT3.

For `COC[C@H](C)Nc1ncc2c(-c3cnn(CC4CNC(=O)C4)c3)cc([C@H]3CC[C@H](O)CC3)n2n1` (some centres unmarked) [Compound 303], the results for the concentration for half-maximal inhibition (IC50) against TYRO3 and at FLT3 were at most 100 nM and 100 to 1000 nM, respectively.

On to `CCCCC[C@H](C)Nc1ncc2c(N3CCC(N(C)C)CC3)cc(C3CCC(O)CC3)n2n1.Cl` (stereo partly drawn) [Compound 115, 4-[5-[4-(dimethylamino)-1-piperidyl]-2-[[(1S)-1-methylhexyl]amino]pyrrolo[2,1-f][1,2,4]triazin-7-yl]cyclohexanol hydrochloride], for which the IC50 at TYRO3 lay in the range of 100 to 1000 nM; against FLT3, 1000 to 10000 nM.

As for `Cc1ccc(-c2cc([C@H]3CC[C@H](O)CC3)n3nc(N[C@@H](C)COC(F)F)ncc23)cn1` [Compound 321], the IC50 on TYRO3 and at FLT3 was at most 100 nM throughout.

On to `COC[C@H](C)Nc1ncc2c(-c3cnn(C(C)(C)C(=O)N4C[C@H]5CC[C@@H](C4)O5)c3)cc([C@H]3CC[C@H](O)CC3)n2n1` [Compound 327], for which the values for the IC50 on TYRO3 and against FLT3 were at most 100 nM and 1000 to 10000 nM, respectively.

Consider `COC[C@H](C)Nc1ncc2c(-c3cnn(C(C)(C)C(=O)N4CCOCC4)c3)cc([C@H]3CC[C@H](O)CC3)n2n1` [Compound 282], for which the values for the IC50 on TYRO3 and against FLT3 were at most 100 nM and 100 to 1000 nM, respectively.

Regarding `COC[C@H](C)Nc1ncc2c(-c3ccnc(OC4CCCN(C)C4)c3)cc([C@H]3CC[C@H](O)CC3)n2n1` (some centres unmarked) [Compound 341], the IC50 is at most 100 nM against TYRO3 and 100 to 1000 nM against FLT3.

With `COCCn1cc(-c2cc([C@H]3CC[C@H](O)CC3)n3nc(N[C@@H](C)COC(F)F)ncc23)cn1` [Compound 274], the IC50 against TYRO3 and on FLT3 was at most 100 nM each time.

As to `COC[C@H](C)Nc1ncc2c(-c3cnn(Cc4cnc(C)cn4)c3)cc([C@H]3CC[C@H](O)CC3)n2n1` [Compound 306], the IC50 at TYRO3 was at most 100 nM; against FLT3, 100 to 1000 nM.

In the case of `COC[C@H](C)Nc1ncc2c(-c3cnn(C4CN(C(=O)C5(C(F)(F)F)CC5)C4)c3)cc([C@H]3CC[C@H](O)CC3)n2n1` [Compound 294], the 50% inhibitory concentration (IC50) at TYRO3 and at FLT3 was at most 100 nM each time.

As to `COC[C@H](C)Nc1ncc2c(-c3cnn(C4CC(S(C)(=O)=O)C4)c3)cc([C@H]3CC[C@H](O)CC3)n2n1` (some centres unmarked) [Compound 287], the IC50 against TYRO3 and against FLT3 was at most 100 nM each time.

On to `COC[C@H](C)Nc1ncc2c(-c3ccnc(N4CCN(C(C)=O)CC4)c3)cc([C@H]3CC[C@H](O)CC3)n2n1` [Compound 344], for which the figures for the IC50 against TYRO3 and on FLT3 were at most 100 nM and 100 to 1000 nM, respectively.

In the case of `COC[C@H](C)Nc1ncc2c(-c3cnn(Cc4noc(C)n4)c3)cc([C@H]3CC[C@H](O)CC3)n2n1` [Compound 285], the half-inhibitory concentration (IC50) on TYRO3 is at most 100 nM; against FLT3, 100 to 1000 nM.

Take `COC[C@H](C)Nc1ncc2c(-c3cnn(C(C)(C)C(=O)N4C[C@@H](C)O[C@@H](C)C4)c3)cc([C@H]3CC[C@H](O)CC3)n2n1` [Compound 320]: the concentration for half-maximal inhibition (IC50) is at most 100 nM at TYRO3 and 1000 to 10000 nM on FLT3.

Consider `Cc1nnc(Cn2cc(-c3cc([C@H]4CC[C@H](O)CC4)n4nc(N[C@@H](C)CC(F)(F)F)ncc34)cn2)o1` [Compound 296], for which the concentration for half-maximal inhibition (IC50) against TYRO3 and against FLT3 was at most 100 nM in each case.

`COC[C@H](C)Nc1ncc2c(-c3cnn(C[C@H]4CCC(=O)N4)c3)cc([C@H]3CC[C@H](O)CC3)n2n1` [Compound 324]: the IC50 is at most 100 nM against TYRO3 and 100 to 1000 nM on FLT3.

Turning to `COC[C@H](C)Nc1ncc2c(-c3cnn(C4CN(CC(F)(F)F)C4)c3)cc([C@H]3CC[C@H](O)CC3)n2n1` [Compound 302], the IC50 against TYRO3 is at most 100 nM; against FLT3, 100 to 1000 nM.
